This note sets out measurements from ChEMBL document CHEMBL3124747, “Formosusin A, a novel specific inhibitor of mammalian DNA polymerase β from the fungus Paecilomyces formosus” (Bioorg Med Chem, 2014).

pIC50: −log10 of the molar value.

Assay [1] has as its target T1, DNA polymerase delta catalytic subunit (Drosophila melanogaster, UniProt P54358).
T1 sequence (P54358 whole entry): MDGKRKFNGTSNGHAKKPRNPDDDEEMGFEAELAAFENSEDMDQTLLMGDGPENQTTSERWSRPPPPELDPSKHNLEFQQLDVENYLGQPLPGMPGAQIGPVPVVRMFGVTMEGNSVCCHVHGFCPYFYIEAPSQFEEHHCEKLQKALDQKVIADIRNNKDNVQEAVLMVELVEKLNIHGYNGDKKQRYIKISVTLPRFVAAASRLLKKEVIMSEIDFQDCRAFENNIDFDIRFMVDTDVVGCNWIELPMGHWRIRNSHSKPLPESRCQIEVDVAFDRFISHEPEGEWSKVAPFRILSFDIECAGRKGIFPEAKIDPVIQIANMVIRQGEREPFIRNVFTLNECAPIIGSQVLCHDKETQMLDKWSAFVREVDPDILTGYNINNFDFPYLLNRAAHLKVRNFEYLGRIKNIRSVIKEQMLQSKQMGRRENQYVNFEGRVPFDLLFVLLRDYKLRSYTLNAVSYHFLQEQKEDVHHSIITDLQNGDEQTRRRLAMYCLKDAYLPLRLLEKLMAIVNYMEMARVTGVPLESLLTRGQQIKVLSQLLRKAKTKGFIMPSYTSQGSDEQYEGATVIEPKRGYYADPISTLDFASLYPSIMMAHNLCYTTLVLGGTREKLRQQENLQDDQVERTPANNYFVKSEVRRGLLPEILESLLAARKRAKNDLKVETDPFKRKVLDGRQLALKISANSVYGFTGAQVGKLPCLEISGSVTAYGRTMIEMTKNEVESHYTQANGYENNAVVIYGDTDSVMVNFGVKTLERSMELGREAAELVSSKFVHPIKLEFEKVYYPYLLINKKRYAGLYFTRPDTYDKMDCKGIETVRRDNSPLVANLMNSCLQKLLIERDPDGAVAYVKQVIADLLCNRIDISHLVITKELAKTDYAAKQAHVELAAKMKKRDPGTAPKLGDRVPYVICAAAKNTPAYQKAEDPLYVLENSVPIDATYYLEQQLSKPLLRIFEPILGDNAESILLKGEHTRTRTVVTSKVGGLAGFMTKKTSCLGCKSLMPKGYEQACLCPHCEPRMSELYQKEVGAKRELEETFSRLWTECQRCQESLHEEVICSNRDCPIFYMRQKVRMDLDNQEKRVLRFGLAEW
The experiment in a line: Inhibition of fruit fly DNA polymerase delta assessed as inhibition of incorporation of dTTP into poly(dA)/oligo(dT)18 after 60 mins.

Another assay has as its target T2, DNA polymerase lambda (Homo sapiens, UniProt Q9UGP5).
T2 sequence (Q9UGP5 whole entry): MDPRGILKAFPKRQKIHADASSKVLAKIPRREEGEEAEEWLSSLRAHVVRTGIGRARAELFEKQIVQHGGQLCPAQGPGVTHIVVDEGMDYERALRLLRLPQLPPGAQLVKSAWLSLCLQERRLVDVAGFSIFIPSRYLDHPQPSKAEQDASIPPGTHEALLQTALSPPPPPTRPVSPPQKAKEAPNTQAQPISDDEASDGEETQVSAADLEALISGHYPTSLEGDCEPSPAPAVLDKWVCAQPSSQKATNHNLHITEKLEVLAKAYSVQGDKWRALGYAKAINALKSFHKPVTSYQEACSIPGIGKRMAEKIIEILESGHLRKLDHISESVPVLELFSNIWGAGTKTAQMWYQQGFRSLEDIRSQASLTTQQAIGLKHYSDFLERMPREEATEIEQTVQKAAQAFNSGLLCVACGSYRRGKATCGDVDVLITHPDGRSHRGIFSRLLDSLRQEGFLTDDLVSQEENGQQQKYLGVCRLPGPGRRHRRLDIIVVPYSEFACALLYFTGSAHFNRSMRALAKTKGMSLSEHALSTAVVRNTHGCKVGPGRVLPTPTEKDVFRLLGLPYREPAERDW
The experiment in a line: Inhibition of human recombinant His-tagged DNA polymerase lambda expressed in Escherichia coli assessed as inhibition of incorporation of dTTP into poly(dA)/oligo(dT)18 after 60 mins.

A short description of assay [2]: Inhibition of Escherichia coli polymerase DNA polymerase 1 klenow fragment assessed as inhibition of incorporation of dTTP into poly(dA)/oligo(dT)18 after 60 mins.
Another assay deals with DNA polymerase beta (Rattus norvegicus, UniProt P06766). The assay is described as follows: Inhibition of recombinant rat DNA polymerase beta expressed in Escherichia coli JMpbeta5 assessed as inhibition of incorporation of dTTP into poly(dA)/oligo(dT)18 after 60 mins.
A short description of assay [3]: Inhibition of Thermus aquaticus DNA polymerase assessed as inhibition of incorporation of dTTP into poly(dA)/oligo(dT)18 after 60 mins.

As for `CCCC[C@@H](O)/C=C(C)/C=C/C=C/C(=O)N1CCCC1=O` [PECILOCIN], the pIC50 (in assay [1]; on DNA polymerase lambda; in assay [2]; at DNA polymerase beta; in assay [3]) was below 3.70 each time.

Regarding `CC(/C=C/CCC(=O)N1CCCC1=O)=C\C1CCCCO1` (stereo not given), the negative-log IC50 (pIC50) (in assay [1]; on DNA polymerase lambda; in assay [2]; on DNA polymerase beta; in assay [3]) was below 3.70 throughout.

Regarding `CCCCC(=O)/C=C(C)/C=C/CCC(=O)N1CCCC1=O`, the negative logarithm of the IC50 (pIC50) (in assay [1]; at DNA polymerase lambda; in assay [2]; on DNA polymerase beta; in assay [3]) was below 3.70 throughout.

With `CCCC[C@@H](O)/C=C(C)/C=C/C=C\C(=O)N1CCCC1=O`, the negative-log IC50 (pIC50) (usually the IC50 on a negative log10 scale, so that one unit is a factor of ten) was below 3.70 in assay [1]; below 3.70 at DNA polymerase lambda; below 3.70 in assay [2]; 4.45 at DNA polymerase beta; below 3.70 in assay [3].
